Key:
[1] = 101.3 kPa, Liquid, Vibrating tube method
[2] = wn = mass fraction of the nth substance listed; conditions: 101.3 kPa, Liquid, Vibrating tube method

NCCO [2-aminoethan-1-ol]
[1]
Conditions	mass density [kg/m3]
303.15 K	1008.8
313.15 K	1000.9

CCOCCO [2-ethoxyethan-1-ol]
[1]
Conditions	mass density [kg/m3]
293.15 K	929.7
298.15 K	925.2
303.15 K	920.7
308.15 K	916.1
313.15 K	911.5
318.15 K	906.8
323.15 K	902.1
328.15 K	897.4
333.15 K	892.6

CCOCCO [2-ethoxyethan-1-ol] + NCCO
[2], w2 = 0.318
Conditions	mass density [kg/m3]
293.15 K	960.2
298.15 K	956
303.15 K	951.7
308.15 K	947.4
313.15 K	943
318.15 K	938.7
323.15 K	934.3
328.15 K	929.8
333.15 K	925.4

COCCO [2-methoxyethan-1-ol]
[1]
Conditions	mass density [kg/m3]
283.15 K	974.7
288.15 K	969.9
293.15 K	964.7
298.15 K	960.1
303.15 K	955.5
308.15 K	950.9
313.15 K	946.2
318.15 K	941.5
323.15 K	936.7
328.15 K	932
333.15 K	927.2

COCCO [2-methoxyethan-1-ol] + NCCO
[2], w2 = 0.31
Conditions	mass density [kg/m3]
293.15 K	985.5
298.15 K	981.1
303.15 K	976.8
308.15 K	972.5
313.15 K	968.1
318.15 K	963.7
323.15 K	959.2
328.15 K	954.8
333.15 K	950.3

From the NIST ThermoML archive (doi:10.1016/j.jct.2019.05.017)
